Data: PMC10754035 (Cancer Research Communications, 2023)
Where two headings read alike, the source gives them in different places.

Columns and labels:
KRAS G12D [1] = target: T1, KRAS G12D (Homo sapiens, UniProt P01116, G12D); set-up: method as in PMID 31332011; settings: ITC; cited from earlier work
T1 construct: Human His-tagged KRAS4B (1-169) G12D, G12V and G12C were custom synthesized; 6His (pET-28a(+)-TEV vector) (N); host or cells: E. coli BL21 star (DE3)

KRAS G12D [2] = target: T1, KRAS G12D; assay: Isothermal titration calorimetry, KRAS G12D; format: binding; settings: ITC, KRAS G12D-NE (non-exchanged), 25°C
Experimental: All isothermal titration calorimetry (ITC) experiments were carried out at 25°C on a MicroCal PEAQ ITC Automated (Malvern). […] The final ITC buffer in the syringe and the cell was 25 mmol/L Tris HCl (pH 8.0), 100 mmol/L NaCl, 0.1 mmol/L DTT, 5% glycerol, 1% NP40, 5 mmol/L MgCl2, and 5% DMSO. ITC titration experiments were carried out with 19 injections, 2 µL per injection, and 150 seconds spacing between each injection. Reference cell power was set to 5 µcal/second and stirring speed was 750 rpm. Data were analyzed using a one site binding model with the Malvern analysis software. All ITC experiments were performed at the biophysical facility at the Institute for Structural Biology, Drug Discovery and Development (ISB3D) at Virginia Commonwealth University (Richmond, VA) and the Massey Cancer Center.
Expression and purification of RAS proteins: Human His-tagged KRAS4B (1-169) G12D, G12V and G12C were custom synthesized and cloned into pET-28a(+)-TEV vector to generate pET-28a(+)-6His-KRAS (1-169) plasmids by GenScript USA Inc., Piscataway, NJ. The proteins were expressed and purified as described below. The full length biotinylated human KRAS4B G12D (His6-MBP-tev-Avi-Hs.KRAS4b G12D (2-188) protein was obtained from Dr Dominic Esposito and Dr. William Gillette from the NCI RAS Initiative at the Frederick National Laboratory. Avi-KRAS4b (2-188) G12D was cloned, expression and purified as described previously (1,2).
Expression and purification of KRAS proteins: BL21 star (DE3) competent cells were transformed with pET-28a(+)-6His-KRAS (1-169) plasmids from GenScript, and the resulting colonies were picked under kanamycin selection. The colonies were grown in LB broth and induced with 0.5mM IPTG for 4 hours when OD reached 0.6-0.8. Bacteria pellets were lysed in 25mM Tris HCL (pH7.8) buffer containing 300mM NaCl, 5mM MgCl2, 10mM Imidazole, 5% Glycerol and 3mM β-mercaptoethanol. Membrane filter-cleared lysate supernatants were incubated with HisPur Ni-NTA resin (Thermo scientific) in an oscillating platform at 4°C for 50 minutes. Econo disposable column (Bio-Rad) was used for washing the beads 3 times with 25mM Tris HCl (pH7.8), 300mM NaCl, 5mM MgCl2, 5% Glycerol buffer with 10mM, 20mM and 30mM Imidazole, respectively. Elution was carried with 25mM Tris HCl (pH7.8), 300mM NaCl, 5mM MgCl2, 5% Glycerol and 500mM Imidazole buffer. After confirming the eluted fraction purity on SDS-PAGE gel, proteins fractions were further purified using HiLoad 16/600 superdex 75 PG column in AKTA system. Protein was eluted in 25mM Tris HCL (pH7.8), 150mM NaCl, 5mM MgCl2 and 0.5mM DTT. KRAS protein aliquots were stored in -80°C.
GCP and NH-GDP nucleotide exchange for ITC: KRAS G12D protein in 25 mM Tris HCL (pH 8.0), 1 mM Calcium Chloride Dihydrate and 200 mM (NH4)2SO4 buffer was added to alkaline phosphatase beads (Sigma, USA) (2U per mg of KRAS) and to non-hydrolysable nucleotide analogs, GCP (β,γ-Methyleneguanosine 5′-triphosphate sodium salt, Sigma, USA) or GDP-NH (Guanosine 5′-[β-thio]diphosphate trilithium salt, Sigma, USA) in molar ratio of 10:1 (Nucleotide:KRAS). The reaction mixture was incubated with gentle rotation for 14-18 hrs at 4 °C. After incubation, the mixture was centrifuged at 1500 g, 4°C to remove the alkaline phosphatase beads. MgCl2 (20 mM) and an additional amount of GCP or NH-GDP in molar ratio of 5:1 (Nucleotide:KRAS) were added, and incubated at room temperature for 1 hr. After incubation, nucleotide exchanged protein was desalted and buffer exchanged at 4 °C using PD-10 column (Catalog # 17085101, GE Healthcare, USA), into a final buffer containing 25 mM Tris HCL (pH 7.5), 150 mM NaCl, 5 mM MgCl2 and 0.5 mM DTT. Buffer exchanged protein was concentrated using Amicon ultra centrifugal filter-10K cut off (Catalog # UFC501024, MilliporeSigma, USA). The protein concentration was measured using Pierce Rapid GOLD BCA Protein Assay Kit (Thermo Scientific, USA) and aliquots were stored in -80°C.

[3] = target: T2, GTP-KRAS G12D binding to GST-RBD (Homo sapiens, UniProt P01116, G12D); assay: KRAS G12D/GST-RBD pulldown assay; format: biochemical; settings: for IC50: GST pulldown, Fig. 2 legend, read-out: IC50, inhibition of GTP-KRAS G12D/GST-RBD binding
T2 construct: Human His-tagged KRAS4B (1-169) G12D, G12V and G12C were custom synthesized; Addgene (GST-RBD) Addgene 13338; host or cells: E. coli BL21 star (DE3)
T2 sequence (P01116 1-169 isoform P01116-2 G12D): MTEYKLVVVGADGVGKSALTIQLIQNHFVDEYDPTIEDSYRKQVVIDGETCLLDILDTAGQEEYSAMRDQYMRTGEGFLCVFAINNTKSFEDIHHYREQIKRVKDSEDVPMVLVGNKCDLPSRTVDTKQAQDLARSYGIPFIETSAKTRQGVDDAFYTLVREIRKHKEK
Experimental: For pulldown experiment, KRAS G12D was preloaded with either GTP or GDP as described above. GDP- or GTP-bound KRAS G12D proteins (250 nmol/L in 100 µL) were then incubated with indicated compound at 37°C for 15–16 minutes. GST-RBD (final 500 nmol/L) was then added and the mixture rocked at 37°C for 1 hour. Pierce glutathione agarose beads (Thermo Fisher Scientific; 20 µL) were then added and the mixture rocked at 37°C for 1 hour. The beads were then washed and the samples were processed for SDS-PAGE and Western blotting with respective antibodies to check the interaction between KRAS-GTP and GST-RBD proteins in presence or absence of the compounds. All the protein dilutions and washes were carried out in a buffer containing 25 mmol/L Tris (pH 7.5), 100 mmol/L NaCl, 5 mmol/L MgCl2, 1% NP-40, 5% glycerol, and 0.1 mmol/L DTT.
Expression and purification of GST-RBD: The Raf1-GST-RBD in pGEX-2T vector in DH5α cells was obtained from Addgene (Raf1 GST RBD 1-149, Plasmid catalog # 13338). GST-RBD plasmid DNA was transformed in BL21*(DE3) bacteria, streaked on agar plate to obtain the colonies . A distinct colony was picked and grown in ampicillin selection media to OD600 of around 0.6-0.8 before induction with IPTG (0.5 mM). Bacterial pellet was resuspended with lysis buffer (50 mM Tris HCL (pH 7.5), 150 mM NaCl, 0.5% Triton X-100, 5 mM MgCl2, 1 mM DTT, 10% Glycerol, 3 mM β-mercaptoethanol) and homogenized. The homogenized lysate was centrifuged at 14000 rpm at 4 °C for 40 min and the resulting supernatant was collected and filtered. The filtered supernatant was incubated with glutathione agarose (Pierce^TM) beads (Thermo Scientific, USA) at 4 °C for 60 min. After incubation, beads and lysate suspension was passed through Bio-Rad Econo column. The beads were washed using lysis buffer (as described above), and the GST-RBD eluted with elution buffer (50 mM Tris HCL (pH 7.5), 150 mM NaCl, 0.5% Triton X-100, 5 mM MgCl2, 1 mM DTT, 10% Glycerol, 10 mM Glutathione). Eluted GST-RBD protein fractions were buffer exchanged into 25 mM Tris (pH 7.5), 150 mM NaCl, 0.5 mM DTT and 5 mM MgCl2 buffer and stored at -80°C.
GTP and GDP nucleotide exchange for GST-RBD pull down: KRAS protein was exchanged with GTP (Sigma, USA) and GDP (Sigma, USA) using EDTA- loading procedure. The RAS proteins (235 µM final) were incubated with ~40-fold molar excess of EDTA (10 mM final), and ~45-fold molar excess of either GDP or GTP for 90 min at 37°C. After incubation, the sample was kept on ice for 10 minutes before incubating with ice-cooled 1M MgCl2 (65 mM final) for 20 minutes to stop the reaction. To remove excess unbound nucleotide, EDTA and magnesium, the proteins were re-buffered using PD10 columns (GE Life Sciences) into (25 mM Tris (pH 7.5), 150 mM NaCl, 0.5 mM DTT and 5 mM MgCl2) buffer and concentrated using Millipore spin ultrafiltration devices (10,000 Da cut off, 4,000 x g). The protein concentration was measured using Pierce Rapid GOLD BCA Protein Assay Kit (Thermo Scientific, USA) and aliquots were stored in -80°C.

T1 sequence (P01116 1-169 isoform P01116-2 G12D): as above

Row | Kd (KRAS G12D [2]) | IC50 [3] | loss of potency relative to KRB-456 ([3]; GST pulldown IC50) | Structure (SMILES) | Kd (KRAS G12D [1])
1 | – | – | – | Cn1cnc(Cn2ccc3ccc(CNCc4[nH]c5ccccc5c4[C@H]4NC(=O)c5ccc(O)cc54)cc32)c1 [BI-2852] | 0.74 µM
2 | 0.641 µM | 0.36 µM | – | COC(=O)C1C2C3(C)C(=O)C=CC2(OC3=O)C2CCC3(CI)CC12CC3=O (centres unmarked) [IB-21G] | –
3 | 4.81 µM | 2.02 µM | about 10 fold | C=C1C[C@]23C[C@@]1(OC(C)=O)CC[C@H]2[C@@]12C=CC(=O)[C@@](C)(C(=O)O1)[C@H]2[C@@H]3C(=O)OC [IB-21J] | –
4 | 11.6 µM | 10.8 µM | – | C=C1C[C@]23C[C@@]1(O)CC[C@H]2[C@@]12C=CC(=O)[C@@](C)(C(=O)O1)[C@H]2[C@@H]3C(=O)NCc1ccccc1 [IIA-15D] | –
